Some results are limits rather than exact numbers.

The target in one assay is T1, Tyrosine-protein kinase Fyn (Homo sapiens, UniProt P06241). Description: Inhibition of peptide EPQ (pY) EEIPI binding to Fyn protein kinase SH2 domain.
T1 sequence (P06241 whole entry, the tested form may be a part): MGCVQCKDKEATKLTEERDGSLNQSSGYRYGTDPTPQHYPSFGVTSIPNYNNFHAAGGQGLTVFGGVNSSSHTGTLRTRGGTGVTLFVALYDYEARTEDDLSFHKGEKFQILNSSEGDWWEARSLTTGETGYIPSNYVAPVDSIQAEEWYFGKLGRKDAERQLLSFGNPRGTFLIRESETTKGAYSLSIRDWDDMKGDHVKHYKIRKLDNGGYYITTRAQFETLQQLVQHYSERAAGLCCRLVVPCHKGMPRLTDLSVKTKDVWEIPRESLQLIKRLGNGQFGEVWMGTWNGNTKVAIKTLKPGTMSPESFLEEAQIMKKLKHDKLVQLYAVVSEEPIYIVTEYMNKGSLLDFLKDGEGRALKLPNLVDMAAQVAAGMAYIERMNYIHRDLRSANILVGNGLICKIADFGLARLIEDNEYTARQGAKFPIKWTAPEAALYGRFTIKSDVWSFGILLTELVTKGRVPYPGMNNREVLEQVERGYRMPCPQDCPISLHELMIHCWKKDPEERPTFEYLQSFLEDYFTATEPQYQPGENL
`Oc1cc2c(cc1O)CC(N1CCCCC1)C2`: the IC50 worked out at 10 µM. Same read-out and setting: to `NC1Cc2cc(O)c(O)cc2C1` belongs 10 µM; to `CCCN(CCC)C1Cc2c(O)ccc(O)c2C1`, 50 µM; to `Oc1cc2c(cc1O)CC(NCc1ccccc1)C2`, 10 µM. On the same count and under the same terms, to `CCCN(CCC)C1Cc2cc(O)c(O)cc2C1` belongs 10 µM; to `CCCN(CCC)C1CCc2cc(O)c(O)cc2C1` (centres undefined), 50 µM; to `CCCC1Cc2cc(O)c(O)cc2C1`, 1 µM. The same measure, in the same setting: to `CC1=CC(=O)C(=O)C=C1C` belongs 1 µM.

For the next assay, the target named is T1, Tyrosine-protein kinase Fyn. Description: Inhibition of peptide EPQ (pY) EEIPI binding to Fyn protein kinase SH2 domain at 100 uM (no inhibition).
`NCCc1ccc(O)c(O)c1` [DOPAMINE] returned an IC50 of more than 100 µM. On the same count and under the same terms, the same measure for `CCCN(CCC)CCc1ccc(O)c(O)c1`: more than 100 µM. Still for that read-out and setting: to `CCCN(CCC)C1Cc2cc(O)cc(O)c2C1` (centres undefined) belongs more than 100 µM.

`CCCN(CCC)C1Cc2ccc(O)cc2C1` (centres undefined) showed an IC50 of more than 100 µM. On the same count and under the same terms, to `CCCN(CCC)C1Cc2cc(O)c(OC)cc2C1` (centres undefined) belongs more than 100 µM.

As to `CCCN(CCC)C1Cc2cc(OC)c(OC)cc2C1` [PNU-99194A], the IC50 was more than 100 µM.

The values above are taken from ChEMBL document CHEMBL1130553, “Covalent binding of catechols to src family SH2 domains” (Bioorg Med Chem Lett, 1997).
